Test results as given in PubChem BioAssay (NCI).
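At the GI50, growth is halved. The concentration for full growth arrest is given as TGI.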

Key:
Test in all cases: NCI tumour cell line growth inhibition, 384-well format
M14 melanoma = system: M14 melanoma
OVCAR-5 ovarian = system: OVCAR-5 ovarian
NCI-H23 lung = system: NCI-H23 lung
HCT-15 colon = system: HCT-15 colon
SF-295 CNS = system: SF-295 CNS
OVCAR-8 ovarian = system: OVCAR-8 ovarian
HCT-116 colon = system: HCT-116 colon
KM12 colon = system: KM12 colon
SW-620 colon = system: SW-620 colon
UO-31 renal = system: UO-31 renal
SK-OV-3 ovarian = system: SK-OV-3 ovarian
SN12C renal = system: SN12C renal
SF-539 CNS = system: SF-539 CNS
MCF7 breast = system: MCF7 breast
PC-3 prostate = system: PC-3 prostate
MDA-MB-435 melanoma = system: MDA-MB-435 melanoma
LOX IMVI melanoma = system: LOX IMVI melanoma
T-47D breast = system: T-47D breast
NCI/ADR-RES ovarian = system: NCI/ADR-RES ovarian
CAKI-1 renal = system: CAKI-1 renal
RXF 393 renal = system: RXF 393 renal
786-0 renal = system: 786-0 renal
SNB-75 CNS = system: SNB-75 CNS
A498 renal = system: A498 renal
EKVX NSCLC = system: EKVX NSCLC
NCI-H226 lung = system: NCI-H226 lung
HT29 colon = system: HT29 colon
TK-10 renal = system: TK-10 renal
SK-MEL-28 melanoma = system: SK-MEL-28 melanoma
A549 NSCLC = system: A549 NSCLC
UACC-257 melanoma = system: UACC-257 melanoma
ACHN renal = system: ACHN renal
NCI-H322M lung = system: NCI-H322M lung
OVCAR-4 ovarian = system: OVCAR-4 ovarian
HL-60(TB) leukemia = system: HL-60(TB) leukemia
CCRF-CEM leukemia = system: CCRF-CEM leukemia
DU-145 prostate = system: DU-145 prostate
SNB-19 CNS = system: SNB-19 CNS
BT-549 breast = system: BT-549 breast
HOP-62 NSCLC = system: HOP-62 NSCLC
MOLT-4 leukemia = system: MOLT-4 leukemia
RPMI-8226 leukemia = system: RPMI-8226 leukemia
OVCAR-3 ovarian = system: OVCAR-3 ovarian
SF-268 CNS = system: SF-268 CNS
IGROV1 ovarian = system: IGROV1 ovarian
U251 glioblastoma = system: U251 glioblastoma
MDA-MB-468 breast = system: MDA-MB-468 breast
HOP-92 NSCLC = system: HOP-92 NSCLC
MALME-3M melanoma = system: MALME-3M melanoma
SK-MEL-2 melanoma = system: SK-MEL-2 melanoma
UACC-62 melanoma = system: UACC-62 melanoma
MDA-MB-231 breast = system: MDA-MB-231 breast
HS 578T breast = system: HS 578T breast
K-562 leukemia = system: K-562 leukemia
NCI-H522 lung = system: NCI-H522 lung
COLO 205 colon = system: COLO 205 colon
HCC-2998 colon = system: HCC-2998 colon
NCI-H460 NSCLC = system: NCI-H460 NSCLC
SK-MEL-5 melanoma = system: SK-MEL-5 melanoma
SR leukemia = system: SR leukemia

## CC(C)Cn1cnc2c(N)nc3ccccc3c21
M14 melanoma
  GI50: > 100 µM
  TGI: > 100 µM
OVCAR-5 ovarian
  GI50: > 100 µM
  TGI: > 100 µM
NCI-H23 lung
  GI50: > 100 µM
  TGI: > 100 µM
HCT-15 colon
  GI50: > 100 µM
  TGI: > 100 µM
SF-295 CNS
  GI50: > 100 µM
  TGI: > 100 µM
OVCAR-8 ovarian
  GI50: > 100 µM
  TGI: > 100 µM
HCT-116 colon
  GI50: > 100 µM
  TGI: > 100 µM
KM12 colon
  GI50: > 100 µM
  TGI: > 100 µM
SW-620 colon
  GI50: > 100 µM
  TGI: > 100 µM
UO-31 renal
  GI50: > 100 µM
  TGI: > 100 µM
SK-OV-3 ovarian
  GI50: > 100 µM
  TGI: > 100 µM
SN12C renal
  GI50: > 100 µM
  TGI: > 100 µM
SF-539 CNS
  GI50: > 100 µM
  TGI: > 100 µM
MCF7 breast
  GI50: > 100 µM
  TGI: > 100 µM
PC-3 prostate
  GI50: > 100 µM
  TGI: > 100 µM
MDA-MB-435 melanoma
  GI50: > 100 µM
  TGI: > 100 µM
LOX IMVI melanoma
  GI50: > 100 µM
  TGI: > 100 µM
T-47D breast
  GI50: > 100 µM
  TGI: > 100 µM
NCI/ADR-RES ovarian
  GI50: > 100 µM
  TGI: > 100 µM
CAKI-1 renal
  GI50: > 100 µM
  TGI: > 100 µM
RXF 393 renal
  GI50: > 100 µM
  TGI: > 100 µM
786-0 renal
  GI50: > 100 µM
  TGI: > 100 µM
SNB-75 CNS
  GI50: > 100 µM
  TGI: > 100 µM
A498 renal
  GI50: > 100 µM
  TGI: > 100 µM
EKVX NSCLC
  GI50: 67.9 µM
  TGI: > 100 µM
NCI-H226 lung
  GI50: > 100 µM
  TGI: > 100 µM
HT29 colon
  GI50: > 100 µM
  TGI: > 100 µM
TK-10 renal
  GI50: > 100 µM
  TGI: > 100 µM
SK-MEL-28 melanoma
  GI50: > 100 µM
  TGI: > 100 µM
A549 NSCLC
  GI50: > 100 µM
  TGI: > 100 µM
UACC-257 melanoma
  GI50: > 100 µM
  TGI: > 100 µM
ACHN renal
  GI50: > 100 µM
  TGI: > 100 µM
NCI-H322M lung
  GI50: > 100 µM
  TGI: > 100 µM
OVCAR-4 ovarian
  GI50: > 100 µM
  TGI: > 100 µM
HL-60(TB) leukemia
  GI50: > 100 µM
  TGI: > 100 µM
CCRF-CEM leukemia
  GI50: > 100 µM
  TGI: > 100 µM
DU-145 prostate
  GI50: > 100 µM
  TGI: > 100 µM
SNB-19 CNS
  GI50: > 100 µM
  TGI: > 100 µM
BT-549 breast
  GI50: > 100 µM
  TGI: > 100 µM
HOP-62 NSCLC
  GI50: > 100 µM
  TGI: > 100 µM
MOLT-4 leukemia
  GI50: > 100 µM
  TGI: > 100 µM
RPMI-8226 leukemia
  GI50: > 100 µM
  TGI: > 100 µM
OVCAR-3 ovarian
  GI50: > 100 µM
  TGI: > 100 µM
SF-268 CNS
  GI50: > 100 µM
  TGI: > 100 µM
IGROV1 ovarian
  GI50: > 100 µM
  TGI: > 100 µM
U251 glioblastoma
  GI50: > 100 µM
  TGI: > 100 µM
MDA-MB-468 breast
  GI50: > 100 µM
  TGI: > 100 µM
HOP-92 NSCLC
  GI50: > 100 µM
  TGI: > 100 µM
MALME-3M melanoma
  GI50: > 100 µM
  TGI: > 100 µM
SK-MEL-2 melanoma
  GI50: > 100 µM
  TGI: > 100 µM
UACC-62 melanoma
  GI50: > 100 µM
  TGI: > 100 µM
MDA-MB-231 breast
  GI50: > 100 µM
  TGI: > 100 µM
HS 578T breast
  GI50: > 100 µM
  TGI: > 100 µM
K-562 leukemia
  GI50: > 100 µM
  TGI: > 100 µM
NCI-H522 lung
  GI50: > 100 µM
  TGI: > 100 µM

## CN(C)CCN1C(=O)c2cccc3cc(N)cc(c23)C1=O
M14 melanoma
  GI50: 2.72 µM
  TGI: 7.79 µM
OVCAR-5 ovarian
  GI50: 2.46 µM
  TGI: 6.66 µM
NCI-H23 lung
  GI50: 2.45 µM
  TGI: 5.59 µM
HCT-15 colon
  GI50: 2.56 µM
  TGI: 8.07 µM
SF-295 CNS
  GI50: 2.77 µM
  TGI: 12.1 µM
OVCAR-8 ovarian
  GI50: 1.8 µM
  TGI: 3.63 µM
KM12 colon
  GI50: 2.85 µM
  TGI: 14.8 µM
SW-620 colon
  GI50: 3.12 µM
  TGI: 12.1 µM
SK-OV-3 ovarian
  GI50: 2.12 µM
  TGI: 6.21 µM
SN12C renal
  GI50: 2.53 µM
  TGI: 11.4 µM
SF-539 CNS
  GI50: 2.22 µM
  TGI: 6.64 µM
MCF7 breast
  GI50: 2.92 µM
  TGI: 16.3 µM
PC-3 prostate
  GI50: 3.49 µM
  TGI: 11.3 µM
COLO 205 colon
  GI50: 1.98 µM
  TGI: 5.32 µM
HCC-2998 colon
  GI50: 2.01 µM
  TGI: 5.47 µM
MDA-MB-435 melanoma
  GI50: 3.44 µM
  TGI: 12 µM
T-47D breast
  GI50: 2.73 µM
  TGI: 6.62 µM
NCI/ADR-RES ovarian
  GI50: 2.8 µM
  TGI: 7.79 µM
CAKI-1 renal
  GI50: 2.2 µM
  TGI: 6.36 µM
RXF 393 renal
  GI50: 2.47 µM
  TGI: 6.06 µM
786-0 renal
  GI50: 3.13 µM
  TGI: 13.5 µM
SNB-75 CNS
  GI50: 1.35 µM
  TGI: 4.62 µM
A498 renal
  GI50: 1.26 µM
  TGI: 4.62 µM
EKVX NSCLC
  GI50: 4.87 µM
  TGI: 19.6 µM
NCI-H226 lung
  GI50: 2.02 µM
  TGI: 4.05 µM
HT29 colon
  GI50: 2.5 µM
  TGI: 6.43 µM
TK-10 renal
  GI50: 2.34 µM
  TGI: 7.61 µM
SK-MEL-28 melanoma
  GI50: 4.01 µM
  TGI: 8.86 µM
A549 NSCLC
  GI50: 1.17 µM
  TGI: 3.64 µM
UACC-257 melanoma
  GI50: 2.68 µM
  TGI: 6.03 µM
ACHN renal
  GI50: 2.31 µM
  TGI: 4.44 µM
NCI-H460 NSCLC
  GI50: 0.791 µM
  TGI: 2.27 µM
NCI-H322M lung
  GI50: 4.51 µM
  TGI: 18.2 µM
SK-MEL-5 melanoma
  GI50: 1.96 µM
  TGI: 3.53 µM
OVCAR-4 ovarian
  GI50: 2.62 µM
  TGI: 5.94 µM
HL-60(TB) leukemia
  GI50: 1.09 µM
  TGI: 2.35 µM
CCRF-CEM leukemia
  GI50: 1 µM
  TGI: 2.19 µM
DU-145 prostate
  GI50: 2.28 µM
  TGI: 14.2 µM
SNB-19 CNS
  GI50: 2.16 µM
  TGI: 6.75 µM
BT-549 breast
  GI50: 2.87 µM
  TGI: 7.03 µM
HOP-62 NSCLC
  GI50: 1.5 µM
  TGI: 3.65 µM
SR leukemia
  GI50: 1.38 µM
  TGI: 2.69 µM
MOLT-4 leukemia
  GI50: 0.242 µM
  TGI: 0.572 µM
RPMI-8226 leukemia
  GI50: 1.4 µM
  TGI: 2.82 µM
OVCAR-3 ovarian
  GI50: 4.01 µM
  TGI: 14 µM
SF-268 CNS
  GI50: 3.06 µM
  TGI: 8.24 µM
IGROV1 ovarian
  GI50: 3.07 µM
  TGI: 16.5 µM
U251 glioblastoma
  GI50: 2.38 µM
  TGI: 5.62 µM
MDA-MB-468 breast
  GI50: 1.88 µM
  TGI: 4.73 µM
HOP-92 NSCLC
  GI50: 2.49 µM
  TGI: 6.89 µM
MALME-3M melanoma
  GI50: 2.2 µM
  TGI: 4.92 µM
SK-MEL-2 melanoma
  GI50: 4.1 µM
  TGI: 6.11 µM
UACC-62 melanoma
  GI50: 1.85 µM
  TGI: 3.61 µM
MDA-MB-231 breast
  GI50: 2.03 µM
  TGI: 5.55 µM
HS 578T breast
  GI50: 1.42 µM
  TGI: 5.1 µM
NCI-H522 lung
  GI50: 1.34 µM
  TGI: 3.03 µM
